The supplement of paper PMC8671470
Where a name gives a salt, the structure may show the parent alone.

Columns and labels:
Test in all cases: cell viability (% survival relative to DMSO control); higher = less cytotoxic
Settings in all cases: 72 h
[1] = test system: Mono-Mac-6
Description: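 8x8 drug-combination matrices (0–5000 nM; rosiglitazone and lestaurtinib 0–1000 nM) were run in Mono-Mac-6 cells for 72 h with CellTiter-Glo read-out. Survival is normalised to DMSO and 10 µM bortezomib and clipped at 100%.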

[2] = test system: BV-173
Description: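 8x8 drug-combination matrices (0–5000 nM; rosiglitazone and lestaurtinib 0–1000 nM) were run in BV-173 cells for 72 h with CellTiter-Glo read-out. Survival is normalised to DMSO and 10 µM bortezomib and clipped at 100%.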

[3] = test system: MV4-11
Description: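 8x8 drug-combination matrices (0–5000 nM; rosiglitazone and lestaurtinib 0–1000 nM) were run in MV4-11 cells for 72 h with CellTiter-Glo read-out. Survival is normalised to DMSO and 10 µM bortezomib and clipped at 100%.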

CN(CCOc1ccc(Cc2sc(O)nc2O)cc1)c1ccccn1 [Rosiglitazone] + CC(C)(Cc1ccccc1)NCC(O)c1ccc(O)c(NS(C)(=O)=O)c1 [Zinterol hydrochloride]
cell viability [%]
Settings | drug1 concentration 1 nM | drug1 concentration 5 nM | drug1 concentration 10 nM | drug1 concentration 50 nM | drug1 concentration 100 nM | drug1 concentration 500 nM | drug1 concentration 1000 nM
[1], drug2 concentration 5 nM | 83 | 77.8 | > 100 | 79.7 | 78.7 | 27.6 | 21.7
[1], drug2 concentration 10 nM | 66.3 | 76 | 74.4 | 89.6 | 60.8 | 20.5 | 24.5
[1], drug2 concentration 50 nM | 86.8 | 79.1 | 74.5 | 76.7 | 45.8 | 29.2 | 28.8
[1], drug2 concentration 100 nM | 70.8 | 77.4 | 78.3 | 62.9 | 49.7 | 28 | 18.9
[1], drug2 concentration 500 nM | 74.7 | 67.8 | 67.6 | 66.1 | 47.9 | 28.4 | 27.1
[1], drug2 concentration 1000 nM | 76.3 | 86.7 | 74.7 | 66.2 | 45.4 | 20.5 | 32.7
[1], drug2 concentration 5000 nM | 55.9 | 64.8 | 51.4 | 46.9 | 49.4 | 22 | 0
[2], drug2 concentration 5 nM | > 100 | > 100 | > 100 | > 100 | > 100 | > 100 | > 100
[2], drug2 concentration 10 nM | > 100 | 86.8 | > 100 | > 100 | > 100 | > 100 | > 100
[2], drug2 concentration 50 nM | 98.6 | > 100 | 88.7 | > 100 | 91.5 | > 100 | > 100
[2], drug2 concentration 100 nM | > 100 | > 100 | > 100 | > 100 | > 100 | 97.1 | > 100
[2], drug2 concentration 500 nM | > 100 | > 100 | > 100 | > 100 | > 100 | > 100 | > 100
[2], drug2 concentration 1000 nM | > 100 | 89.5 | > 100 | 94.1 | > 100 | > 100 | > 100
[2], drug2 concentration 5000 nM | 94.8 | > 100 | 90.4 | > 100 | > 100 | 97.6 | > 100
[3], drug2 concentration 5 nM | > 100 | 97.6 | 93.9 | 77.8 | > 100 | > 100 | > 100
[3], drug2 concentration 10 nM | > 100 | > 100 | > 100 | > 100 | > 100 | 89.1 | > 100
[3], drug2 concentration 50 nM | 97 | 96.9 | 91.9 | > 100 | > 100 | 94 | > 100
[3], drug2 concentration 100 nM | > 100 | > 100 | > 100 | > 100 | 93 | 96.1 | > 100
[3], drug2 concentration 500 nM | 99.9 | > 100 | 98.7 | > 100 | > 100 | 87.2 | 98.8
[3], drug2 concentration 1000 nM | > 100 | 70.6 | 96.2 | > 100 | 91.6 | 95.1 | > 100
[3], drug2 concentration 5000 nM | 95 | > 100 | 98.5 | > 100 | > 100 | > 100 | > 100

CCn1c(=Cc2cccc[n+]2CC)sc(=C2Sc3ccccc3N2C)c1=O [MKT 077] + CN(C)CCNC(=O)c1cccn2c(=O)c3cc4ccccc4cc3nc12 [Bmh-21]
cell viability [%]
Settings | drug1 concentration 5 nM | drug1 concentration 10 nM | drug1 concentration 50 nM | drug1 concentration 100 nM | drug1 concentration 500 nM | drug1 concentration 1000 nM | drug1 concentration 5000 nM
[1], drug2 concentration 5 nM | 93.5 | > 100 | 99.6 | 94.6 | 99.8 | > 100 | > 100
[1], drug2 concentration 10 nM | > 100 | > 100 | > 100 | 90.1 | > 100 | 78.2 | > 100
[1], drug2 concentration 50 nM | 95.8 | 86.2 | 82.7 | > 100 | 87.1 | > 100 | 99
[1], drug2 concentration 100 nM | 91.6 | > 100 | > 100 | 99.7 | > 100 | > 100 | > 100
[1], drug2 concentration 500 nM | 90.4 | 93.3 | 82.1 | 87.7 | 84.3 | 62.8 | 73.5
[1], drug2 concentration 1000 nM | 76.7 | 77.5 | > 100 | 72.8 | 76.2 | 74.1 | 56.9
[1], drug2 concentration 5000 nM | 46 | 58.2 | 59.9 | 64.1 | 65.1 | 58.6 | 24.6
[2], drug2 concentration 5 nM | 90.2 | > 100 | > 100 | > 100 | 82.7 | > 100 | 93.6
[2], drug2 concentration 10 nM | > 100 | > 100 | > 100 | > 100 | > 100 | > 100 | > 100
[2], drug2 concentration 50 nM | > 100 | > 100 | 86 | 90.4 | 86.5 | > 100 | > 100
[2], drug2 concentration 100 nM | > 100 | 96.7 | 94.6 | > 100 | 90.9 | > 100 | > 100
[2], drug2 concentration 500 nM | 4.65 | 59.5 | 45.4 | 34.8 | 46.4 | 11.4 | 49.9
[2], drug2 concentration 1000 nM | 0.56 | 28.5 | 1.73 | 66.5 | 1.33 | 2.69 | 6.83
[2], drug2 concentration 5000 nM | 0.22 | 1.2 | -0.65 | 0.37 | -0.07 | 0.15 | 6.67
[3], drug2 concentration 5 nM | 89 | 81.4 | > 100 | 87.9 | 90.8 | > 100 | 78.7
[3], drug2 concentration 10 nM | 97.1 | > 100 | > 100 | 99.1 | 86 | 71 | > 100
[3], drug2 concentration 50 nM | 86.2 | 86.7 | 88.4 | > 100 | 84.5 | > 100 | > 100
[3], drug2 concentration 100 nM | > 100 | > 100 | 92.3 | 95.9 | 89.4 | 69.7 | > 100
[3], drug2 concentration 500 nM | 70.6 | 88.8 | 78.3 | 87.8 | > 100 | 86.7 | 84.5
[3], drug2 concentration 1000 nM | 87.2 | 46.6 | > 100 | 89.9 | 74.8 | 60.5 | 64.2
[3], drug2 concentration 5000 nM | 31.1 | 35.2 | 31.4 | 63.2 | 25.9 | 24.1 | 37.5
